Tests used:
VCAM-1 = test: Matrigel plug assay, VCAM-1 staining; format: in vivo; settings: C57BL/6 mice; 2.5 mg/mouse; 7 days
Description: Matrigel plug assay. Matrigel (500 μl) containing VEGF-A165 (100 ng/ml), heparin (10U) and BT2 or BT3 (2.5 mg/mouse) or its vehicle (saline containing 0.01% DMSO and 0.5% Tween 80) was injected subcutaneously into the left flanks of male 8 week-old C57BL/6 mice. After 7d the mice were sacrificed by CO2 asphyxiation and the plugs carefully removed. Formalin-fixed paraffin embedded sections were prepared from Matrigel plugs for immunohistological assessment. Heat-induced epitope retrieval was applied to all deparaffinized sections (4 μm Superfrost slides) in citrate buffer, pH 6 for 5 min at 110° C. Immunostaining for all groups with a given antibody was performed simultaneously and development time was identical. […]
Slides were scanned using an Aperio ScanScope XT slide scanner (Leica Biosystems, Mt Waverley, Vic Australia) and images captured using ImageScope software (Leica Biosystems). Positive intraplug staining was assessed using Image-Pro Plus software (Cybernetics, Bethesda, MD) in 5-12 randomly selected fields of view for each plug photographed under 10× (CD31), 20× (VCAM-1) and 40× (FosB) objectives and expressed as integrated optical density (IOD, the product of calibrated intensity (optical density) and area, i.e. IOD=intensity (mean)×area) (Media Cybernetics) (Liu, H., et al., Sci Rep 6, 21319 (2016)). […]

p-SAPK/JNK = test: Western blot, IL-1β-inducible p-SAPK/JNK in HMEC-1; format: cell-based, human; settings: 1-30 μM
Description: Western blot analysis with extracts of cells treated with IL-13. HMEC-1 (80-90% confluency) were arrested in serum-free MCDB131 medium (Invitrogen, MD) without any growth factor for 48 h. Cells were treated with 30 μM compound in serum-free medium for 4 h, and incubated with 20 ng/ml IL-1β (Sigma, cat. SRE3083) in serum-free medium with the same concentration of compound for up to 4 h, unless otherwise indicated. Total protein was harvested as previously described using RIPA buffer with protease inhibitors. Proteins were resolved on 4-20% (w/v) SDS-polyacrylamide gradient gels and transferred to Immobilon-P PVDF membranes. […] Chemiluminescence was detected using the Western Lightning Chemiluminescence system and ImageQuant™ LAS 4000 biomolecular imager. Band intensity in images generated with the LAS 4000 using the same settings were quantified by NIH ImageJ.

[1] = test system: THP-1 transendothelial migration; test: Monocyte-transendothelial migration assay toward MCP-1; format: cell-based, human; settings: HMEC; 20 ng/ml IL-1β; 24 h
Description: Monocyte-transendothelial migration assay. Millicell 8 μm polycarbonated culture plate inserts (Millipore) were coated with 0.1% porcine gelatin type A (Sigma) and then placed into 24-well plates. HMEC (5×10^4 cells/well) were seeded onto the insert and allowed to adhere overnight. Cells were then serum deprived for 24 h and treated with various compound treatments for 1 h. IL-1β (20 ng/ml) was added to stimulate the cells for 4 h and 500 μl of serum-free medium was added to the bottom of the 24-well plate along with the compound. THP-1 (5×10^5 cells in 100 μl) were added into the insert and 100 ng/ml MCP-1 (Sigma) was added to the lower well. After 24 h, the number of cells that had migrated though the endothelial layer was assessed by counting 100 μl of the suspension in the lower chamber using a Coulter cell counter (Beckman Coulter).

Q: Which “VCAM-1 immunoreactivity in Matrigel plugs” value (VCAM-1) does the source give for `CCOC(=O)Nc1ccc2c(c1)C(=O)N(CC)c1ccccc1O2` [BT2, (10-ethyl-11-oxo-10,11-dihydro-dibenzo[b,f][1,4]oxazepin-2-yl)-carbamic acid ethyl ester] here?
A: The value was “inhibited”.

Q: What about the “IL-1β-inducible p-SAPK/JNK” value (p-SAPK/JNK) of the same compound?
A: Its value is “no effect”.

Q: And the “transendothelial migration of THP-1 monocytes toward MCP-1” value [1]?
A: Its value is “inhibits the transendothelial migration”.
